Data from PubChem BioAssay AID248 (DTP/NCI, 2004).
Where “and” joins values, the source holds several entries; their conditions need not be identical. Equal entries are not always repeated. Inconclusive results and toxic doses are left out. Cut-off read from the data, not from the text of the source: active = T/C of 150% or more; inactive = T/C below 125%.

Test system: L1210 leukemia ip in BDF1 mice, survival T/C
Assay: NCI In Vivo Anticancer Drug Screen. Data for tumor model L1210 Leukemia (intraperitoneal) in B6D2F1 (BDF1) mice
Settings: endpoint: mean survival time, higher = longer survival
Outline: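 Each compound was tested against a transplantable tumor grown in mice. The endpoint was survival, with treated animals benchmarked against vehicle controls as a simple ratio.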

[1] = dose: 100.0 mg/kg/injection, schedule: Q01DX001 (ip), vehicle: saline
[2] = dose: 100.0 mg/kg/injection, schedule: Q01DX009 (ip), vehicle: saline
[3] = dose: 100.0 mg/kg/injection, schedule: Q04DX003 (ip), vehicle: saline
[4] = dose: 200.0 mg/kg/injection, schedule: Q01DX001 (ip), vehicle: saline
[5] = dose: 200.0 mg/kg/injection, schedule: Q01DX009 (ip), vehicle: saline
[6] = dose: 200.0 mg/kg/injection, schedule: Q04DX003 (ip), vehicle: saline
[7] = dose: 400.0 mg/kg/injection, schedule: Q01DX001 (ip), vehicle: saline
[8] = dose: 400.0 mg/kg/injection, schedule: Q01DX009 (ip), vehicle: saline
[9] = dose: 400.0 mg/kg/injection, schedule: Q04DX003 (ip), vehicle: saline
[10] = dose: 50.0 mg/kg/injection, schedule: Q01DX009 (ip), vehicle: Klucel (hydroxypropylcellulose) (HPC)
[11] = dose: 100.0 mg/kg/injection, schedule: Q01DX009 (ip), vehicle: Klucel (hydroxypropylcellulose) (HPC)
[12] = dose: 200.0 mg/kg/injection, schedule: Q01DX009 (ip), vehicle: Klucel (hydroxypropylcellulose) (HPC)
[13] = dose: 100.0 mg/kg/injection, schedule: Q04DX003 (ip), vehicle: saline with Tween-80
[14] = dose: 200.0 mg/kg/injection, schedule: Q04DX003 (ip), vehicle: saline with Tween-80
[15] = dose: 100.0 mg/kg/injection, schedule: Q04DX003 (ip), vehicle: Klucel (hydroxypropylcellulose) (HPC)
[16] = dose: 200.0 mg/kg/injection, schedule: Q04DX003 (ip), vehicle: Klucel (hydroxypropylcellulose) (HPC)
[17] = dose: 400.0 mg/kg/injection, schedule: Q04DX003 (ip), vehicle: Klucel (hydroxypropylcellulose) (HPC)
[18] = dose: 400.0 mg/kg/injection, schedule: Q01DX009 (ip), vehicle: Klucel (hydroxypropylcellulose) (HPC)

Measured: T/C

O=C(Nc1ccc(S(=O)(=O)O)cc1)c1ccc([N+](=O)[O-])cc1
inactive: dose: 50.0 mg/kg/injection, schedule: Q01DX001 (ip), vehicle: saline 92 % of control | [1] 103 % of control | [2] 95 % of control | [3] 100 % of control | [4] 97 % of control | [5] 102 % of control | [6] 91 % of control | [7] 97 % of control | [8] 100 % of control | [9] 100 % of control

Nc1cccc(OCCCOc2cccc([N+](=O)[O-])c2)c1
inactive: [10] 106 % of control | [11] 90 % of control | [12] 90 % of control

O=C(O)c1cc(-c2ccc(Cl)cc2)nc2c(-c3ccccc3)cccc12
inactive: [13] 95 % of control | [14] 95 % of control | dose: 400.0 mg/kg/injection, schedule: Q04DX003 (ip), vehicle: saline with Tween-80 90 % of control

CC(C)NNCCO
inactive: dose: 50.0 mg/kg/injection, schedule: Q01DX009 (ip), vehicle: saline 98 % of control | [2] 103 % of control | [3] 89 % of control | [6] 95 % of control

O=C(O)C1C2CC=CCC21 (centres undefined)
inactive: dose: 25.0 mg/kg/injection, schedule: Q01DX001 (ip), vehicle: Klucel (hydroxypropylcellulose) (HPC) 102 % of control | dose: 50.0 mg/kg/injection, schedule: Q01DX001 (ip), vehicle: Klucel (hydroxypropylcellulose) (HPC) 101 % of control | dose: 100.0 mg/kg/injection, schedule: Q01DX001 (ip), vehicle: Klucel (hydroxypropylcellulose) (HPC) 93 % of control and 94 % of control | [15] 101 % of control | dose: 200.0 mg/kg/injection, schedule: Q01DX001 (ip), vehicle: Klucel (hydroxypropylcellulose) (HPC) 93 % of control | [16] 98 % of control | dose: 400.0 mg/kg/injection, schedule: Q01DX001 (ip), vehicle: Klucel (hydroxypropylcellulose) (HPC) 97 % of control | [17] 102 % of control

Cc1nc(N)[nH]c(=O)c1CC(C)O (centres undefined)
inactive: [3] 92 % of control | [6] 100 % of control | [9] 92 % of control

Clc1c(CBr)ccc(CBr)c1Cl
inactive: dose: 6.25 mg/kg/injection, schedule: Q01DX009 (ip), vehicle: saline with Tween-80 91 % of control | dose: 6.25 mg/kg/injection, schedule: Q04DX003 (ip), vehicle: Klucel (hydroxypropylcellulose) (HPC) 95 % of control | dose: 12.5 mg/kg/injection, schedule: Q01DX009 (ip), vehicle: saline with Tween-80 89 % of control | dose: 12.5 mg/kg/injection, schedule: Q04DX003 (ip), vehicle: Klucel (hydroxypropylcellulose) (HPC) 92 % of control | dose: 25.0 mg/kg/injection, schedule: Q01DX009 (ip), vehicle: saline with Tween-80 96 % of control | dose: 25.0 mg/kg/injection, schedule: Q04DX003 (ip), vehicle: Klucel (hydroxypropylcellulose) (HPC) 93 % of control

COc1cc(/C=C\[N+](=O)[O-])ccc1OCc1ccccc1
inactive: [10] 94 % of control | dose: 50.0 mg/kg/injection, schedule: Q04DX003 (ip), vehicle: Klucel (hydroxypropylcellulose) (HPC) 98 % of control | [11] 103 % of control | [15] 104 % of control | [12] 95 % of control | [16] 91 % of control

Cn1c(=O)cc(/C=C/c2ccc(-c3ccccc3)cc2)c2ccccc21
inactive: [1] 103 % of control | [4] 93 % of control | [7] 93 % of control

COC1=CC23CCNC(Cc4ccc(OC)c(O)c42)C3=CC1 (centres undefined)
inactive: dose: 10.0 mg/kg/injection, schedule: Q01DX001 (ip), vehicle: saline 101 % of control

COc1ccc(CNCCN2CC2)cc1
inactive: dose: 10.0 mg/kg/injection, schedule: Q01DX009 (ip), vehicle: Klucel (hydroxypropylcellulose) (HPC) 108 % of control | dose: 20.0 mg/kg/injection, schedule: Q01DX009 (ip), vehicle: Klucel (hydroxypropylcellulose) (HPC) 106 % of control | dose: 40.0 mg/kg/injection, schedule: Q01DX009 (ip), vehicle: Klucel (hydroxypropylcellulose) (HPC) 98 % of control

O=C(NCc1ccc([N+](=O)[O-])cc1)OCc1ccccc1
inactive: [11] 103 % of control | [15] 102 % of control | [12] 102 % of control | [16] 104 % of control | [18] 94 % of control | [17] 96 % of control

CN(C)c1ccc(C(O)C(N)=O)cc1 (centres undefined)
inactive: dose: 6.25 mg/kg/injection, schedule: Q01DX001 (ip), vehicle: saline 103 % of control | dose: 12.5 mg/kg/injection, schedule: Q01DX001 (ip), vehicle: saline 94 % of control | dose: 25.0 mg/kg/injection, schedule: Q01DX001 (ip), vehicle: saline 97 % of control

O=C1CC(c2ccccc2)C1(c1ccccc1)c1ccccc1 (centres undefined)
inactive: [15] 98 % of control | [16] 101 % of control | [17] 96 % of control

COc1cc([N+](=O)[O-])ccc1-c1c(C(=O)O)cccc1[N+](=O)[O-]
inactive: [15] 101 % of control | [16] 95 % of control | [17] 90 % of control

COc1nc(N)nc2nc(N)c(-c3ccc(N(CCO)CCO)cc3)nc12
inactive: [1] 95 % of control | [4] 96 % of control | [7] 95 % of control

CC(/C=C(\C)N1CCCC1)=[N+]1CCCC1
inactive: dose: 0.78 mg/kg/injection, schedule: Q01DX009 (ip), vehicle: saline 101 % of control | dose: 1.56 mg/kg/injection, schedule: Q01DX009 (ip), vehicle: saline 101 % of control | dose: 1.56 mg/kg/injection, schedule: Q04DX003 (ip), vehicle: saline 94 % of control and 108 % of control | dose: 3.12 mg/kg/injection, schedule: Q04DX003 (ip), vehicle: saline 112 % of control and 89 % of control | dose: 6.25 mg/kg/injection, schedule: Q04DX003 (ip), vehicle: saline 110 % of control

CCCc1ccc2c(c1)CCCC2
inactive: [11] 94 % of control | [15] 94 % of control | [12] 90 % of control | [16] 93 % of control | [18] 97 % of control | [17] 94 % of control

CCOC(=O)C(OCc1ccccc1)(C(=O)O)C(C)C (centres undefined)
inactive: dose: 25.0 mg/kg/injection, schedule: Q04DX003 (ip), vehicle: saline with Tween-80 93 % of control | dose: 50.0 mg/kg/injection, schedule: Q04DX003 (ip), vehicle: saline with Tween-80 97 % of control | [13] 98 % of control | [14] 103 % of control

O=C(O)c1ccc(OCCOc2ccccc2)cc1
inactive: dose: 100.0 mg/kg/injection, schedule: Q01DX009 (ip), vehicle: saline sonified 90 % of control | dose: 200.0 mg/kg/injection, schedule: Q01DX009 (ip), vehicle: saline sonified 95 % of control | dose: 200.0 mg/kg/injection, schedule: Q04DX003 (ip), vehicle: saline sonified 100 % of control | dose: 400.0 mg/kg/injection, schedule: Q01DX009 (ip), vehicle: saline sonified 93 % of control | dose: 400.0 mg/kg/injection, schedule: Q04DX003 (ip), vehicle: saline sonified 108 % of control

COC(=O)OCCOC(=O)OC
inactive: [2] 105 % of control | [3] 100 % of control | [5] 101 % of control | [6] 102 % of control | [8] 100 % of control | [9] 103 % of control
